ChEMBL document CHEMBL5143672, “New diarylpentanoids and chalcones as potential antimicrobial adjuvants” (2022)

What was measured:
[1] = system: Salmonella typhimurium; experiment: Antibacterial activity against Salmonella enterica serovar typhimurium SL1344 (SE03) assessed as inhibition of bacterial growth by broth microdilution method; type: functional, Salmonella enterica subsp. enterica serovar Typhimurium
[2] = system: Candida albicans; experiment: Antifungal activity against Candidia albicans ATCC 10231 assessed as inhibition of fungal growth by broth microdilution method; type: functional
[3] = system: Escherichia coli; experiment: Antimicrobial adjuvant activity against ESBL-producing Escherichia coli SA/2 assessed as potentiation of cefotaxime-induced antibacterial activity by measuring fold reduction in cefotaxime MIC at 64 ug/ml by broth microdilution method; type: functional; details: dose 64 µg/ml
[4] = system: Escherichia coli; experiment: Antibacterial activity against Escherichia coli ATCC 25922 assessed as inhibition of bacterial growth by broth microdilution method; type: functional
[5] = Inhibition of Multidrug resistance efflux pump in Staphylococcus aureus 272123 assessed as relative fluorescence index using ethidium bromide as substrate at 50 uM by fluorescence based analysis
[6] = system: Pseudomonas aeruginosa; experiment: Antibacterial activity against Pseudomonas aeruginosa ATCC 27853 assessed as inhibition of bacterial growth by broth microdilution method; type: functional
[7] = system: Staphylococcus aureus; experiment: Antibacterial activity against methicillin and ofloxacin-resistant Staphylococcus aureus 272123 assessed as inhibition of bacterial growth by broth microdilution method; type: functional
[8] = system: Trichophyton rubrum; experiment: Antifungal activity against Trichophyton rubrum FF5 assessed as inhibition of fungal growth by broth microdilution method; type: functional
[9] = system: Aspergillus fumigatus; experiment: Antifungal activity against Aspergillus fumigatus ATCC 204305 assessed as inhibition of fungal growth by broth microdilution method; type: functional
[10] = system: Enterococcus faecalis; experiment: Antibacterial activity against Enterococcus faecalis ATCC 29212 assessed as inhibition of bacterial growth by broth microdilution method; type: functional
[11] = system: Staphylococcus aureus; experiment: Antibacterial activity against Staphylococcus aureus ATCC 25923 assessed as inhibition of bacterial growth by broth microdilution method; type: functional
[12] = system: Salmonella enterica subsp. enterica serovar Typhimurium; experiment: Inhibition of Multidrug resistance efflux pump in Salmonella enterica serovar typhimurium SL1344 (SE03) assessed as relative fluorescence index using ethidium bromide as substrate at 50 uM by fluorescence based analysis
[13] = system: Enterococcus faecalis; experiment: Antimicrobial adjuvant activity against Enterococcus faecalis B3/101 assessed as potentiation of vancomycin-induced antibacterial activity by measuring fold reduction in vancomycin MIC at 64 ug/ml by broth microdilution method; type: functional; details: dose 64 µg/ml
[14] = system: Serratia marcescens; experiment: Inhibition of quorum sensing system in Serratia marcescens AS-1 assessed as reduction in pigment production incubated for 24 to 48 hrs; details: time 24-48 hrs
[15] = system: Staphylococcus aureus; experiment: Inhibition of biofilm formation in Staphylococcus aureus ATCC 25923 at 100 uM incubated for 48 hrs by crystal violet staining based analysis; type: functional
[16] = system: Staphylococcus aureus; experiment: Inhibition of biofilm formation in Staphylococcus aureus 272123 at 100 uM incubated for 48 hrs by crystal violet staining based analysis; type: functional
[17] = Inhibition of quorum sensing system in Chromobacterium violaceum CV026 assessed as reduction in pigment production co-cultured with Sphingomonas paucimobilis Ezf 10-17 for 24 to 48 hrs; details: time 24-48 hrs
[18] = Inhibition of quorum sensing system in Chromobacterium violaceum wild type 85 assessed as reduction in pigment production incubated for 24 to 48 hrs; details: time 24-48 hrs

SMILES | MIC [1] [µg/mL] | MIC [2] [µg/mL] | fold change (FC) [3] | MIC [4] [µg/mL] | RFU [5] | MIC [6] [µg/mL] | MIC [7] [µg/mL] | MIC [8] [µg/mL] | MIC [9] [µg/mL] | MIC [10] [µg/mL] | MIC [11] [µg/mL] | RFU [12] | fold change (FC) [13] | Activity [14] [mm] | inhibition at 100 µM [15] [%] | inhibition at 100 µM [16] [%] | Activity [17] [mm] | Activity [18] [mm]
O=C1/C(=C/c2ccc(F)cc2)COC/C1=C\c1ccc(F)cc1 | > 64 | > 128 | 8 | > 64 | -0.11 | > 64 | > 64 | > 128 | > 128 | > 64 | > 64 | 0.17 | – | – | – | – | – | –
Cc1ccccc1/C=C1\COC/C(=C\c2ccccc2C)C1=O | > 64 | > 128 | – | > 64 | -0.23 | > 64 | > 64 | > 128 | > 128 | > 64 | > 64 | -0.08 | 2 | – | – | – | – | –
Cc1cccc(/C=C2\COC/C(=C\c3cccc(C)c3)C2=O)c1 | > 64 | > 128 | 2 | > 64 | 0.11 | > 64 | > 64 | > 128 | > 128 | > 64 | > 64 | -0.12 | 2 | – | – | – | – | –
COc1cc(OC)c(OC)cc1/C=C1\Cc2ccccc2C1=O | > 64 | > 128 | 2 | > 64 | -0.34 | > 64 | > 64 | > 128 | > 128 | > 64 | > 64 | 0.11 | 2 | – | – | – | – | –
O=C1/C(=C/c2ccc(C(F)(F)F)cc2)COC/C1=C\c1ccc(C(F)(F)F)cc1 | > 64 | > 128 | 2 | > 64 | -0.12 | > 64 | > 64 | > 128 | > 128 | > 64 | > 64 | -0.24 | – | – | – | – | – | –
O=C1/C(=C/c2ccccc2Cl)COC/C1=C\c1ccccc1Cl | > 64 | > 128 | 2 | > 64 | -0.16 | > 64 | > 64 | > 128 | > 128 | > 64 | > 64 | -0.08 | – | – | – | – | – | –
COc1cc(/C=C2\COC/C(=C\c3cc(OC)c(OC)c(OC)c3)C2=O)cc(OC)c1OC | > 64 | > 128 | 2 | > 64 | 0.02 | > 64 | > 64 | > 128 | > 128 | > 64 | > 64 | -0.05 | – | – | – | – | – | –
COc1ccccc1/C=C1\Cc2ccccc2C1=O | > 64 | > 128 | – | > 64 | 0.05 | > 64 | > 64 | > 128 | > 128 | > 64 | > 64 | 0.25 | 2 | – | – | – | – | –
COc1cc(/C=C2\COC/C(=C\c3cc(OC)cc(OC)c3)C2=O)cc(OC)c1 | > 64 | > 128 | – | > 64 | 0.25 | > 64 | > 64 | > 128 | > 128 | > 64 | > 64 | 0.09 | 4 | – | – | – | – | –
O=C1/C(=C/c2ccc(Cl)cc2Cl)COC/C1=C\c1ccc(Cl)cc1Cl | > 64 | > 128 | 2 | > 64 | -0.25 | > 64 | > 64 | > 128 | > 128 | > 64 | > 64 | -0.13 | – | – | – | – | – | –
O=C1/C(=C/c2ccc(Br)cc2)COC/C1=C\c1ccc(Br)cc1 | > 64 | > 128 | 8 | > 64 | 0.53 | > 64 | > 64 | > 128 | > 128 | > 64 | > 64 | 0.06 | – | 0 | 0 | 51.2 | 0 | 0
O=C1/C(=C/c2ccccc2Br)COC/C1=C\c1ccccc1Br | > 64 | > 128 | – | > 64 | -0.05 | > 64 | > 64 | > 128 | > 128 | > 64 | > 64 | -0.02 | 2 | – | – | – | – | –
